The test system of data set [1] is Ephrin B2 (EphB2) receptor in PC-12 PS-1/L286V cells. Kind of data set: EphB2 receptor expression (immunofluorescence and RT-PCR). Conditions: PS-1/L286V mutant PC-12 cells; 10 μM. The data set is classed as cell-based, Rat. Here is the method: Immunofluorescence. Cells were plated at a density of 10,000 cells/cm^2 on sterile coated 22×22 mm coverslips in a 6-well culture plate. Differentiation was initiated, as previously described, for 10 days. The differentiated cells were then fixed in methanol for 15 minutes at −20° C. This is followed by a 15 minutes incubation with PBS+0.1% Triton X-100. The coverslips were incubated with antibodies raised against Ephrin B2 Receptor (Santa Cruz Biotechnology) and Gap-43 (Novus Biologicals) for 40 minutes at 37° C. After a series of washes with PBS-Triton X-100, secondary antibody conjugated to FITC (Jackson ImmunoResearch, Westgrove, Pa.) was applied. All slides images were acquired using a Nikon PCM2000 Laser Scanning Confocal Microscope mounted on a Nikon Eclipse E600 upright microscope (Nikon, Melville, N.Y.).
RT-PCR. To analyze the mRNA levels for Ephrin B2 (EphB2) receptor, total RNA was isolated using Trizol (Invitrogen-GIBCO-BRL, Baltimore, Md.) from differentiated cells. 2 μg RNA was reverse transcribed in a total volume of 20 μl with random hexamer (50 ng), and using the Superscript II reverse transcription system (Invitrogen-GIBCO-BRL), according to manufacturer's guidelines. PCR was carried out in a 50 μl volume containing 5 μl cDNA, 100 pmol primers, 100 μM dNTPs, 1×Taq buffer and 1.5 mM MgCl2. […]

Data set [2] deals with survivin promoter in wild type, CBP+/−, p300+/− 3T3 cells. The experiment in a line: Survivin promoter luciferase reporter in 3T3 cells. The data set is classed as cell-based. From the text:
A plasmid containing luciferase under the control of survivin promoter was constructed and transfected into wild type, CBP+/−, or p300+/−3T3 cells.
In general terms: A reporter such as luciferase makes a cellular process visible.

In a further data set the test system is survivin protein. The experiment in a line: Western blot analysis of survivin. The data set is classed as cell-based. A general note: In western blotting, separated proteins are transferred to a membrane and probed.
In the next data set the test system is cultured tumor cells. The experiment in a line: Cell death of cultured tumor cells. The class given is cell-based. Conditions: 5.0 μM.
The target in data set [3] is β-catenin/CBP interaction (Homo sapiens, UniProt Q92793). Conditions: Emami et al., Cancer Cell, in press; cited from earlier work.
Chain of β-catenin/CBP interaction (Q92793 whole entry): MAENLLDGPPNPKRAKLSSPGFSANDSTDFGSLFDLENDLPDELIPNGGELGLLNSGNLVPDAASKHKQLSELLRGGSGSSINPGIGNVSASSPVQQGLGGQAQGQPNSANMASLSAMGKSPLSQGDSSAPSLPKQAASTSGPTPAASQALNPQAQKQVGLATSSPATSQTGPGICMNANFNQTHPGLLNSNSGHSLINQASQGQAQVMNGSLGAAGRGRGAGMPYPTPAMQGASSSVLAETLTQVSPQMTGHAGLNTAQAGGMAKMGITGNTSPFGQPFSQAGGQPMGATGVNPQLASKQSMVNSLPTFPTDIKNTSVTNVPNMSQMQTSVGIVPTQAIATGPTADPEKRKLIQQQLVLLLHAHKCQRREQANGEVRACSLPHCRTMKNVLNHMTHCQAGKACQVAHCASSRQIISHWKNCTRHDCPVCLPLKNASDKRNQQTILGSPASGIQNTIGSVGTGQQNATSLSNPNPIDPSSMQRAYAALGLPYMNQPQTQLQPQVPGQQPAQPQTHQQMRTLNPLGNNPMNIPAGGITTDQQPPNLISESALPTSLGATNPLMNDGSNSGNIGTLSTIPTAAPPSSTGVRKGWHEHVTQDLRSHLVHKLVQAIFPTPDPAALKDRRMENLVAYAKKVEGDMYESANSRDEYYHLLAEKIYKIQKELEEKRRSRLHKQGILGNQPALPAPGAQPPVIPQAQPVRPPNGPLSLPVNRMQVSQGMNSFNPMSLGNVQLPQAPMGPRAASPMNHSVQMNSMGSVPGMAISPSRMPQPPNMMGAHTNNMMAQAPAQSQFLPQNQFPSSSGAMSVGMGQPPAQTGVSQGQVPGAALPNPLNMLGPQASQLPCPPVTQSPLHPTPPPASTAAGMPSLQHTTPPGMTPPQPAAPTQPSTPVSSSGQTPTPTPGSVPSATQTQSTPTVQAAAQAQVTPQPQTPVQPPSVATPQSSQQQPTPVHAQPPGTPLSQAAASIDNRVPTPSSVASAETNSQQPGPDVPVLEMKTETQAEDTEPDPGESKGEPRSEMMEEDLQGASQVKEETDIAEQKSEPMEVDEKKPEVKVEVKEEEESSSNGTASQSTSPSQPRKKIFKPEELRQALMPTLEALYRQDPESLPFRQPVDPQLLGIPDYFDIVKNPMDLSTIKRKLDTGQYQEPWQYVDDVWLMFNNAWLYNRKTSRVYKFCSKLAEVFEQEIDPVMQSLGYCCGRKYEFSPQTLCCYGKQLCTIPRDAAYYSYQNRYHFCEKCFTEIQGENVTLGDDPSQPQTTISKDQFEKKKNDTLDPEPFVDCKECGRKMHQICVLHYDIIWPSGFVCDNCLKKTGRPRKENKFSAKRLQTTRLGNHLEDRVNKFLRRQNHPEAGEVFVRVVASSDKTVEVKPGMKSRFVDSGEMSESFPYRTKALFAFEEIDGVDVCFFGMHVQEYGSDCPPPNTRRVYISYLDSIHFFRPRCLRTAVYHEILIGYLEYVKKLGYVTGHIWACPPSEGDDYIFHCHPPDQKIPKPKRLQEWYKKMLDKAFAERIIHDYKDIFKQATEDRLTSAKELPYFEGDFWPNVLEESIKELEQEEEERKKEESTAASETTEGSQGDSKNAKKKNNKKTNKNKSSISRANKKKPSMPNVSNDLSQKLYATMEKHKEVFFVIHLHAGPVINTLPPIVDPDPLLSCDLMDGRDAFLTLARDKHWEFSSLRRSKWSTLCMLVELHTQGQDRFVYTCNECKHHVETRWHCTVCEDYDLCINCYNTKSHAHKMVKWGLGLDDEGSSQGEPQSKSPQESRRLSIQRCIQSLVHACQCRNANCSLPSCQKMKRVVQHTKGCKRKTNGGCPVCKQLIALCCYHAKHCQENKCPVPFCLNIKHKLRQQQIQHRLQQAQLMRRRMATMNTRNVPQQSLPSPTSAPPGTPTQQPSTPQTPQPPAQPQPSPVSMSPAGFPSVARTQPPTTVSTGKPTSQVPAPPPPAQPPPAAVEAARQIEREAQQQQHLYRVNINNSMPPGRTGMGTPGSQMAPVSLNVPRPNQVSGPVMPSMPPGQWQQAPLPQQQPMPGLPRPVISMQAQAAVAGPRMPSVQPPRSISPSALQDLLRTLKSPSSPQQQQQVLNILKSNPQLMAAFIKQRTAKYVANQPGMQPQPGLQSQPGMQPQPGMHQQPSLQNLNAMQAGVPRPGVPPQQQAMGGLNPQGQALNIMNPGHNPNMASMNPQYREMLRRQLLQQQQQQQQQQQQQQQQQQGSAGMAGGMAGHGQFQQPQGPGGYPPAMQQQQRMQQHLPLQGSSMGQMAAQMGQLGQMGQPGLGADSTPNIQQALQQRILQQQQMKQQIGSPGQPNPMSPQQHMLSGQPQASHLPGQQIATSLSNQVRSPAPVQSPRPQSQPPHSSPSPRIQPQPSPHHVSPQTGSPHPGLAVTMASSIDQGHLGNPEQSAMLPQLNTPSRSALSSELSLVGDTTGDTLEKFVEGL
Data set [4] in a line: Sulforhodamine B (SRB) assay. The data set is classed as cell-based. Conditions: human, 293 cells (renal), 293, Renal, read-out: GI50 (SRB in vitro cytotoxicity). Here is the method: (§1) Growth inhibitory effect of Compound A on the cells listed below was measured by the sulforhodamine B assay. SW480 cells in 100 μl media were plated in each well of 96-well plate and allowed to attach for 24 hours. Compound A was added to the wells to produce the desired final concentrations, and the plates were incubated at 37° C. for 48 hours. The cells were then fixed by gentle addition of 100 μl of cold (4° C.) 10% trichloroacetic acid to each well, followed by incubation at 4° C. for 1 hour. Plates were washed with deionized water five times and allowed to air dry. The cells were then stained by addition of 100 μl SRB solution (0.4% SRB(w/v) in 1% acetic acid (v/v)) to wells for 15 min. After staining, the plates were quickly washed five times with 1% acetic acid to remove any unbound dye, and allowed to air dry. Bound dye was solubilized with 10 mmol/L Tris base (pH 10.5) prior to reading the plates. The optical density (OD) was read on a plate reader at a wavelength of 515 nm with Molecular Device. Inhibition of growth was expressed as relative viability (% of control) and GI50 was calculated from concentration-response curves after log/probit transformation.

For another data set, the system named is A375. Kind of data set: Sulforhodamine B (SRB) assay. The data set is classed as cell-based. To be noted: Homo sapiens, A-375; A375, Melanoma; 48 hours; read-out: GI50 (SRB in vitro cytotoxicity). Here is the method:
as §1
(The SRB assay estimates cell density from bound dye.)

Another data set concerns A431. The experiment in a line: Sulforhodamine B (SRB) assay. The data set is classed as cell-based. To be noted: Homo sapiens, A-431; A431, Melanoma; 48 hours; read-out: GI50 (SRB in vitro cytotoxicity). The procedure: as §1
Another data set has as its system ACHN. Kind of data set: Sulforhodamine B (SRB) assay. The class given is cell-based. Conditions: Homo sapiens, Renal, 48 hours, read-out: GI50 (SRB in vitro cytotoxicity). Here is the method: as §1
In a further data set the test system is CACO-2. The experiment in a line: Sulforhodamine B (SRB) assay. The data set is classed as cell-based. To be noted: Homo sapiens; CACO-2, Colon; 48 hours; read-out: GI50 (SRB in vitro cytotoxicity). The procedure: as §1
The subject of another data set is COLO205. Kind of data set: Sulforhodamine B (SRB) assay. The class given is cell-based. To be noted: Homo sapiens, COLO 205; COLO205, Colon; 48 hours; read-out: GI50 (SRB in vitro cytotoxicity). The procedure: as §1
Another data set concerns HCC2998. The experiment in a line: Sulforhodamine B (SRB) assay. The data set is classed as cell-based. Conditions: Homo sapiens, HCC 2998; HCC2998, Colon; 48 hours; read-out: GI50 (SRB in vitro cytotoxicity). The procedure: as §1
A further data set concerns HCT116. The experiment in a line: Sulforhodamine B (SRB) assay. The data set is classed as cell-based. To be noted: Homo sapiens, HCT-116; HCT116, Colon; 48 hours; read-out: GI50 (SRB in vitro cytotoxicity). Here is the method:
as §1

A further data set concerns HMV-I. Kind of data set: Sulforhodamine B (SRB) assay. The data set is classed as cell-based. To be noted: Melanoma, 48 hours, read-out: GI50 (SRB in vitro cytotoxicity). Here is the method: as §1
The test system of the next data set is HT29. Kind of data set: Sulforhodamine B (SRB) assay. The data set is classed as cell-based. Conditions: Homo sapiens, HT-29; HT29, Colon; 48 hours; read-out: GI50 (SRB in vitro cytotoxicity). The procedure: as §1
Another data set relates to KM12. The experiment in a line: Sulforhodamine B (SRB) assay. The class given is cell-based. Conditions: Homo sapiens; KM12, Colon; 48 hours; read-out: GI50 (SRB in vitro cytotoxicity). The procedure: as §1
The next data set has as its system SW620. The experiment in a line: Sulforhodamine B (SRB) assay. The class given is cell-based. To be noted: Homo sapiens, SW-620; SW620, Colon; 48 hours; read-out: GI50 (SRB in vitro cytotoxicity). Here is the method: as §1
A further data set concerns T84. Kind of data set: Sulforhodamine B (SRB) assay. The class given is cell-based. To be noted: Homo sapiens; T84, Colon; 48 hours; read-out: GI50 (SRB in vitro cytotoxicity). The procedure: as §1
The next data set concerns UACC62. The experiment in a line: Sulforhodamine B (SRB) assay. The data set is classed as cell-based. To be noted: Homo sapiens, UACC-62; UACC62, Melanoma; 48 hours; read-out: GI50 (SRB in vitro cytotoxicity). The procedure: as §1

Values after ≈ are worked out from the molar mass of the structure shown. “Also recorded” adds a separate entry of the source.

The term GI50 denotes the concentration giving 50% growth inhibition.

On to `O=C1[C@H](Cc2ccc(O)cc2)N2C(=O)CCN(C(=O)NCc3ccccc3)[C@H]2CN1Cc1cccc2ccccc12` [Compound D], for which the “EphB2 message (RT-PCR)” value in [1] is “increased EphB2 message; also recorded: upregulates EphB2 message”. For the same compound, the “EphB2 receptor expression (immunofluorescence)” value in data set [1] is on record as “increased EphB2 receptor expression”. For the same compound, in [2], the “survivin gene expression (luciferase under survivin promoter)” value is “reduces expression of the survivin gene; also recorded: knout-down”. Moreover, in data set [2] (with Wnt1), the “Wnt1 stimulation of survivin gene expression” value was “decreases the stimulation of the survivin gene expression by Wnt1”. Besides, the “amount of survivin protein (Western blot)” value in the data set on survivin protein (10 μM) and in the data set on survivin protein (25 μM) was “reduced the amount of the survivin protein” in each case. Also, the cell death result in the data set on cultured tumor cells is reported as “promotes cell death”. In addition, the β-catenin/CBP interaction result in data set [3] is recorded as “selectively blocks the β-catenin/CBP interaction”.

As to `O=c1[nH]cc(F)c(=O)[nH]1` [Compound 5-FU, 5-fluorouracil], the GI50 at 48 h in data set [4] amounted to 2.02 µg/mL (≈ 15.5 µM). Also, the GI50 came out at 1.46 µg/mL (≈ 11.3 µM) in the data set on A375; 0.404 µg/mL (≈ 3.11 µM) in the data set on A431; 5.06 µg/mL (≈ 38.9 µM) with ACHN; 0.451 µg/mL (≈ 3.47 µM) in the data set with CACO-2; 1.13 µg/mL (≈ 8.69 µM) in the data set with COLO205; 5.49 µg/mL (≈ 42.2 µM) in the data set on HCC2998. Besides, the GI50 with HCT116 stood at 1.04 µg/mL (≈ 7.99 µM); in the data set with HMV-I, 2.11 µg/mL (≈ 16.2 µM); with HT29 it was 5.33 µg/mL (≈ 41 µM); in the data set on KM12 it was 2.73 µg/mL (≈ 21 µM); in the data set with SW620, 5.57 µg/mL (≈ 42.8 µM); in the data set with T84, 1.82 µg/mL (≈ 14 µM). Besides, in the data set with UACC62, the GI50 was 1.09 µg/mL (≈ 8.4 µM). For the same compound, in the data set with survivin protein (5 μM), the “amount of survivin protein (Western blot)” value is listed as “reduced the amount of the survivin protein”.
